Data taken from patent publication US20250059202A1, “CRYSTAL FORM OF FUSED RING DERIVATIVE, AND PREPARATION METHOD THEREFOR AND USE THEREOF” (SHANGHAI YINGLI PHARMACEUTICAL CO., LTD, priority 2022, published 2025).
“And” between values parts separate entries of the source, which are not always exact repeats. Equal entries are not always repeated.

Experiments:
Format in all cases: physicochemical
[1] = Heating experiments (105° C., XRPD); conditions: about 1 hour
[2] = Dynamic Vapor Sorption (DVS)
Description: An Advantage 1.0 dynamic moisture adsorption instrument from SMS was used to detect, the temperature is 25° C., the relative humidity range is 0%-95%, humidity change step is relative humidity 5%, when the value of the mass change rate dm/dt is less than 0.002%, it is considered equilibrium of the balance, when the mass change rate is less than 0.01%/minute within 5 minutes, it is considered as standards of equilibrium in detection process, the maximum equilibrium time is 2 hours.

[3] = Accelerated stability (40±2° C., RH 75±5%)
[4] = Influencing factor stability test, high humidity (25° C., RH92.5±5%)
[5] = Influencing factor stability test, light (4500±500 Lux, 25° C.)
[6] = Stability of crystal form I in solvent at room temperature (suspension equilibrium, XRPD)
[7] = Stability of crystal form I in solvent at high temperature (50° C., XRPD)
[8] = Influencing factor stability test, high temperature (60±2° C.)
[9] = Competition experiments of crystal form I and crystal form IV in solvents at room temperature; conditions: 7 days, each tested solvent
[10] = Hygroscopicity under condition of high humidity

## CC(C)(Cc1cc2c(-c3ccc(C#N)cc3)cncc2s1)C(=O)O [crystal form VI, 3-[4-(4-Cyanophenyl)thieno[2,3-c]pyridin-2-yl]-2,2-dimethylpropanoic acid]
[1]
  XRPD after heating compared to before heating: transform to the crystal form I

## CC(C)(Cc1cc2c(-c3ccc(C#N)cc3)cncc2s1)C(=O)O [crystal form I, 3-[4-(4-Cyanophenyl)thieno[2,3-c]pyridin-2-yl]-2,2-dimethylpropanoic acid]
[2]
  hygroscopicity (in words): non-hygroscopic
[2]; relative humidity from 0 to 95%, 25° C.
  mass increase compared with the initial mass (DVS): 0.00944% and 0.01%
[3]; 0 day
  Assay: 99.1%
  Total impurities: 0.05%
  Water content: 0.04%
[3]; 1 month
  Assay: 99.2%
  Total impurities: 0.05%
  Water content: 0.06%
[3]; 2 months
  Assay: 98.6%
  Total impurities: 0.03%
  Water content: 0.03%
[3]; 3 months
  Assay: 98.5%
  Total impurities: 0.03%
  Water content: 0.04%
[3]; 6 months
  Assay: 99.7%
  Total impurities: 0.05%
  Water content: 0.10%
[1]
  XRPD after heating compared to before heating: unchanged
[4]; 0 day
  Assay: 99.1%
  Polymorph: Crystal form I
  Total impurities: 0.05%
  Water content: 0.05%
[4]; 5 days
  Assay: 100.1%
  Polymorph: Crystal form I
  Total impurities: 0.07%
  Water content: 0.06%
[4]; 10 days
  Assay: 100.6%
  Polymorph: Crystal form I
  Total impurities: 0.07%
  Water content: 0.09%
[5]; 0 day
  Assay: 99.1%
  Polymorph: Crystal form I
  Total impurities: 0.05%
  Water content: 0.05%
[5]; 5 days
  Assay: 99.8%
  Polymorph: Crystal form I
  Total impurities: 0.07%
  Water content: 0.04%
[5]; 10 days
  Assay: 100.3%
  Polymorph: Crystal form I
  Total impurities: 0.12%
  Water content: 0.09%
[6]; 7 days, single organic solvents (methanol, ethanol, isopropanol, acetone, ethyl acetate etc.)
  crystal form after suspension equilibrium (XRPD): unchanged
[6]; 14 days, water and methanol-, ethanol-, isopropanol-, acetone-water mixtures
  crystal form after suspension equilibrium (XRPD): unchanged
[7]; 30 days, methanol-water, ethanol-water, isopropanol-water, acetone-water 50:50
  crystal form after suspension equilibration (XRPD): unchanged
[7]; 43 days, methanol, ethanol, isopropanol, acetone or ethyl acetate
  crystal form after suspension equilibration (XRPD): unchanged
[8]; 0 day
  Assay: 99.1%
  Polymorph: Crystal form I
  Total impurities: 0.05%
  Water content: 0.05%
[8]; 5 days
  Assay: 101.1%
  Polymorph: Crystal form I
  Total impurities: 0.07%
  Water content: 0.04%
[8]; 10 days
  Assay: 100.0%
  Polymorph: Crystal form I
  Total impurities: 0.07%
  Water content: 0.04%

## CC(C)(Cc1cc2c(-c3ccc(C#N)cc3)cncc2s1)C(=O)O [crystal form IV, 3-[4-(4-Cyanophenyl)thieno[2,3-c]pyridin-2-yl]-2,2-dimethylpropanoic acid]
[1]
  XRPD after heating compared to before heating: unchanged
[9]
  solid form after competition between crystal form I and crystal form IV (XRPD): transformed to the crystal form I

## CC(C)(Cc1cc2c(-c3ccc(C#N)cc3)cncc2s1)C(=O)O [crystal form III, 3-[4-(4-Cyanophenyl)thieno[2,3-c]pyridin-2-yl]-2,2-dimethylpropanoic acid]
[1]
  XRPD after heating compared to before heating: transform to the crystal form I

## CC(C)(Cc1cc2c(-c3ccc(C#N)cc3)cncc2s1)C(=O)O [amorphous form, 3-[4-(4-Cyanophenyl)thieno[2,3-c]pyridin-2-yl]-2,2-dimethylpropanoic acid]
[10]
  hygroscopicity (in words): strong hygroscopicity
